# Reference: BigSolDB 2.1
compound,measurement,setting,value
CC1=CC(=O)C(C(C)C)=CC1=O,solubility (mole fraction),"in DMSO, 298.2 K",0.0278
same,solubility (mole fraction),"in DMSO, 303.2 K",0.0309
same,solubility (mole fraction),"in DMSO, 308.2 K",0.0358
same,solubility (mole fraction),"in DMSO, 313.2 K",0.0402
same,solubility (mole fraction),"in DMSO, 318.2 K",0.045
same,solubility (mole fraction),"in PEG-400, 298.2 K",0.0352
same,solubility (mole fraction),"in PEG-400, 303.2 K",0.042
same,solubility (mole fraction),"in PEG-400, 308.2 K",0.0508
same,solubility (mole fraction),"in PEG-400, 313.2 K",0.0617
same,solubility (mole fraction),"in PEG-400, 318.2 K",0.0744
same,solubility (mole fraction),"in ethanol, 298.2 K",0.0179
same,solubility (mole fraction),"in ethanol, 303.2 K",0.0206
same,solubility (mole fraction),"in ethanol, 308.2 K",0.0238
same,solubility (mole fraction),"in ethanol, 313.2 K",0.0278
same,solubility (mole fraction),"in ethanol, 318.2 K",0.0326
same,solubility (mole fraction),"in ethyl acetate, 298.2 K",0.0312
same,solubility (mole fraction),"in ethyl acetate, 303.2 K",0.0347
same,solubility (mole fraction),"in ethyl acetate, 308.2 K",0.0387
same,solubility (mole fraction),"in ethyl acetate, 313.2 K",0.0431
same,solubility (mole fraction),"in ethyl acetate, 318.2 K",0.0485
same,solubility (mole fraction),"in isopropanol, 298.2 K",0.0451
same,solubility (mole fraction),"in isopropanol, 303.2 K",0.0514
same,solubility (mole fraction),"in isopropanol, 308.2 K",0.0579
same,solubility (mole fraction),"in isopropanol, 313.2 K",0.0663
same,solubility (mole fraction),"in isopropanol, 318.2 K",0.0758
same,solubility (mole fraction),"in methanol, 298.2 K",0.01
same,solubility (mole fraction),"in methanol, 303.2 K",0.0116
same,solubility (mole fraction),"in methanol, 308.2 K",0.0137
same,solubility (mole fraction),"in methanol, 313.2 K",0.0157
same,solubility (mole fraction),"in methanol, 318.2 K",0.0182
same,solubility (mole fraction),"in n-butanol, 298.2 K",0.0594
same,solubility (mole fraction),"in n-butanol, 303.2 K",0.0658
same,solubility (mole fraction),"in n-butanol, 308.2 K",0.0744
same,solubility (mole fraction),"in n-butanol, 313.2 K",0.082
same,solubility (mole fraction),"in n-butanol, 318.2 K",0.0933
same,solubility (mole fraction),"in propylene glycol, 298.2 K",0.00553
same,solubility (mole fraction),"in propylene glycol, 303.2 K",0.0069
same,solubility (mole fraction),"in propylene glycol, 308.2 K",0.00891
same,solubility (mole fraction),"in propylene glycol, 313.2 K",0.0116
same,solubility (mole fraction),"in propylene glycol, 318.2 K",0.0146
same,solubility (mole fraction),"in sec-butanol, 298.2 K",0.0614
same,solubility (mole fraction),"in sec-butanol, 303.2 K",0.07
same,solubility (mole fraction),"in sec-butanol, 308.2 K",0.0774
same,solubility (mole fraction),"in sec-butanol, 313.2 K",0.0865
same,solubility (mole fraction),"in sec-butanol, 318.2 K",0.0973
same,solubility (mole fraction),"in transcutol, 298.2 K",0.0664
same,solubility (mole fraction),"in transcutol, 303.2 K",0.0755
same,solubility (mole fraction),"in transcutol, 308.2 K",0.0838
same,solubility (mole fraction),"in transcutol, 313.2 K",0.0927
same,solubility (mole fraction),"in transcutol, 318.2 K",0.103
same,solubility (mole fraction),"in water, 298.2 K",8.27e-05
same,solubility (mole fraction),"in water, 303.2 K",9.39e-05
same,solubility (mole fraction),"in water, 308.2 K",0.000108
same,solubility (mole fraction),"in water, 313.2 K",0.000131
same,solubility (mole fraction),"in water, 318.2 K",0.000152
